Measured values published in EP1568368A1, “Pharmaceutical combination comprising a CDK inhibitor and a VEGF receptor inhibitor” (Schering Aktiengesellschaft, priority 2004, dated 2005).

System: MaTu estrogen-independent human mammary carcinoma cells
Assay: MaTu human estrogen-independent mammary carcinoma xenograft model, tumor growth inhibition (tumor area by caliper)
Format: in vivo, NMRI nude mice
Parameters: inhibition of the growth of the MaTu xenograft model: dose or concentration left out as unconfirmed
Details: monotherapy
Description: MaTu (EPO-GmbH, Berlin) estrogen-independent human mammary carcinoma cells, obtained from cell culture, were implanted s.c. in the inguinal region of femal NMRI nude mice. Treatment was started when the tumors were approximately 20 mm^2 in size. The groups were closed when the tumors within a treatment group reached a size of approximately 100 mm^2.
Experimental groups included the following: • 1) Control vehicle • 2) a CDK inhibitor ([…]) • 3) a VEGF-R inhibitor (50 mg/kg, p.o. twice daily, d4-d21) • 4) a CDK inhibitor ([…]) in combination with a VEGF-R inhibitor (50 mg/kg, p.o. twice daily, d4-d21) CDK inhibitor = N-[5-[[[5-(1,1-dimethylethyl)-2-oxazolyl] methyl]thio]-2-thiazolyl]-4-piperidinecarboxamide VEGF-R inhibitor = (4-Chlorophenyl)[4-(4-pyridylmethyl)phthalazin-1-yl]ammonium hydrogen succinate
Tumor area was determined by caliper measurement twice weekly. The example was designed to determine the initial response of a human estrogen-independent mammary carcinoma xenograft model to treatment with a specific CDK inhibitor, to treatment with a specific VEGF-R inhibitor, and to treatment with a combination of a CDK inhibitor together with a VEGF-R inhibitor. The tumor growth inhibiting effect of the compounds was investigated in the MaTu human estrogen-independent mammary carcinoma model, xenografted in NMRI nude mice. […]

SMILES | inhibition of tumor growth (50 mg/kg p.o. twice daily, d4-d21, s.c. MaTu xenograft in female NMRI nude mice) | inhibition of the growth of the MaTu xenograft model (i.p. once daily, d4-d21, s.c. xenograft in female NMRI nude mice)
Clc1ccc(Nc2nnc(Cc3ccncc3)c3ccccc23)cc1.O=C(O)CCC(=O)O [VEGF-R inhibitor, (4-Chlorophenyl)[4-(4-pyridylmethyl)phthalazin-1-yl]ammonium hydrogen succinate] | initially an inhibition of tumor growth | 
CC(C)(C)c1cnc(CSc2cnc(NC(=O)C3CCNCC3)s2)o1 [CDK inhibitor, N-[5-[[[5-(1,1-dimethylethyl)-2-oxazolyl]methyl]thio]-2-thiazolyl]-4-piperidinecarboxamide] |  | ineffective
